The experiment concerns the target hCB1R (Homo sapiens, UniProt P21554). Briefly: In vitro functional assay (FLIPR, intracellular Ca2+) with recombinant HEK293 cells, CB1. The format is cell-based. Further details: expressed in transfected cells; host or cells: HEK293. The note with it: recombinant HEK293 cells expressing CB1 and Galpha16; 20 min preincubation, then reference agonist; Ca2+ change; read-out: hCB1R: FLIPR; IC50. The source says: In Vitro Functional Assays with Recombinant Cells:

hCB1R, sequence (P21554 whole entry): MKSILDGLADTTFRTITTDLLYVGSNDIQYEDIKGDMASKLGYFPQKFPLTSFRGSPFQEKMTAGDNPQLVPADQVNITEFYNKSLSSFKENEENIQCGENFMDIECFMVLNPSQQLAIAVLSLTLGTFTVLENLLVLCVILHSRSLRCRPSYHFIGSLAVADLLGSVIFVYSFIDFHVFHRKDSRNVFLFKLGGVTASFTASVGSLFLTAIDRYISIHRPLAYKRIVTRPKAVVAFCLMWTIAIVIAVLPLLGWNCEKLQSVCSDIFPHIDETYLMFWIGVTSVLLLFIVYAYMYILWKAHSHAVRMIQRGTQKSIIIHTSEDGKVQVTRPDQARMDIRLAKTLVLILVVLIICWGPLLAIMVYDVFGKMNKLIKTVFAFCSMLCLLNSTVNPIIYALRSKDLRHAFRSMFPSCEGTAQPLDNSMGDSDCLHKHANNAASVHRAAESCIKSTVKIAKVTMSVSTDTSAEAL

As to `CC1(C)C(=O)N(c2ccc(C#N)c(C(F)(F)F)c2)C(=O)N1Cc1ccccc1Nc1ccc(NS(C)(=O)=O)cc1` [Example 175, N-(4-{2-[3-(4-Cyano-3-trifluoromethylphenyl)-5,5-dimethyl-2,4-dioxoimidazolidin-1-ylmethyl]phenylamino}phenyl)methanesulfonamide], the IC50 was determined as 9 nM.

Take `CC1(C)C(=O)N(c2ccc(C#N)c(C(F)(F)F)c2)C(=O)N1Cc1ccccc1Nc1ccc(N)cc1` [Example 113, 4-{3-[2-(4-Aminophenylamino)benzyl]-4,4-dimethyl-2,5-dioxoimidazolidin-1-yl}-2-trifluoromethylbenzonitrile]: the IC50 worked out at 4 nM. `CC1(C)C(=O)N(c2ccc(C#N)c(C(F)(F)F)c2)C(=O)N1Cc1ccccc1Nc1ccc(C#N)cc1` [Example 33, 4-{3-[2-(4-cyanophenylamino)benzyl]-4,4-dimethyl-2,5-dioxoimidazolidin-1-yl}-2-trifluoromethylbenzonitrile]: the IC50 turned out to be 4 nM. The figure for `COC(=O)c1ccc(Nc2cc(C(F)(F)F)ccc2CN2C(=O)N(c3ccc(C#N)c(C(F)(F)F)c3)C(=O)C2(C)C)cc1` [Example 106, methyl 4-{2-[3-(4-cyano-3-trifluoromethylphenyl)-5,5-dimethyl-2,4-dioxoimidazolidin-1-ylmethyl]-5-trifluoromethylphenylamino}benzoate] is 12 nM; for `CC1(C)C(=O)N(c2ccc(C#N)c(-c3ccc(F)cc3)c2)C(=O)N1Cc1ccc(F)cc1Nc1ccc(C(=O)O)cc1` [Example 258, 4-{2-[3-(6-Cyano-4′-fluorobiphenyl-3-yl)-5,5-dimethyl-2,4-dioxoimidazolidin-1-ylmethyl]-5-fluorophenylamino}benzoic acid] it is 31 nM.

`CC1(C)C(=O)N(c2ccc(C#N)c(C(F)(F)F)c2)C(=O)N1Cc1cccc(Cl)c1Nc1ccc(Cl)cc1` [Example 43, 4-{3-[5-chloro-6-(4-chlorophenylamino)benzyl]-4,4-dimethyl-2,5-dioxoimidazolidin-1-yl}-2-trifluoromethylbenzonitrile]: the IC50 came out at 77 nM. For `CC1(C)C(=O)N(c2ccc(C#N)c(C(F)(F)F)c2)C(=O)N1Cc1ccccc1Nc1ccc(S(C)(=O)=O)cc1Cl` [Example 14, 4-{3-[2-(2-chloro-4-methylsulfonylphenylamino)benzyl]-4,4-dimethyl-2,5-dioxoimidazolidin-1-yl}-2-trifluoromethylbenzonitrile], the IC50 stood at 108 nM.

As to `CC1(C)C(=O)N(c2ccc(C#N)c(C(F)(F)F)c2)C(=O)N1Cc1ccccc1Nc1ccc(N)c(F)c1` [Example 95, 4-{3-[2-(4-Amino-3-fluorophenylamino)benzyl]-4,4-dimethyl-2,5-dioxoimidazolidin-1-yl}-2-trifluoromethylbenzonitrile], the IC50 stood at 31 nM.

Turning to `CC1(C)C(=O)N(c2ccc(F)c(C(F)(F)F)c2)C(=O)N1Cc1ccc(F)cc1Nc1ccc2c(c1)CCC2=O` [Example 206, 1-[4-fluoro-2-(1-oxoindan-5-ylamino)benzyl]-3-(4-fluoro-3-trifluoromethylphenyl)-5,5-dimethylimidazolidine-2,4-dione], the IC50 turned out to be 24 nM. In the case of `CC1(C)C(=O)N(c2ccc(C#N)c(-c3ccc(F)cc3)c2)C(=O)N1Cc1ccc(F)cc1Nc1ccc(F)cc1F` [Example 253, 5-{3-[2-(2,4-Difluorophenylamino)-4-fluorobenzyl]-4,4-dimethyl-2,5-dioxoimidazolidin-1-yl}-4′-fluorobiphenyl-2-carbonitrile], the IC50 came to 29 nM. In the case of `CC1(C)C(=O)N(c2ccc(C#N)c(C(F)(F)F)c2)C(=O)N1Cc1ccc(F)cc1Nc1ccc(C(=O)O)cc1` [Example 133, 4-{2-[3-(4-cyano-3-trifluoromethylphenyl)-5,5-dimethyl-2,4-dioxoimidazolidin-1-ylmethyl]-5-fluorophenylamino}benzoic acid], the IC50 worked out at 10 nM. As to `CC1(C)C(=O)N(c2ccc(C#N)c(C(F)(F)F)c2)C(=O)N1Cc1ccccc1Nc1ccc(O)cc1` [Example 135, 4-{3-[2-(4-Hydroxyphenylamino)benzyl]-4,4-dimethyl-2,5-dioxoimidazolidin-1-yl}-2-trifluoromethylbenzonitrile], the IC50 worked out at 1 nM. The figure for `CC1(C)C(=O)N(c2ccc(C#N)c(C(F)(F)F)c2)C(=O)N1Cc1cc(Cl)cc(Cl)c1Nc1ccc(F)cc1F` [Example 39, 4-{3-[3,5-dichloro-6-(2,4-difluorophenylamino)benzyl]-4,4-dimethyl-2,5-dioxoimidazolidin-1-yl}-2-trifluoromethylbenzonitrile] is 69 nM; for `CC1(C)C(=O)N(c2ccc(C#N)c(C(F)(F)F)c2)C(=O)N1Cc1c(Cl)cc(Cl)cc1Nc1ccc(F)cc1` [Example 35, 4-{3-[2,4-Dichloro-6-(4-fluorophenylamino)benzyl]-4,4-dimethyl-2,5-dioxoimidazolidin-1-yl}-2-trifluoromethylbenzonitrile] it is 15 nM; for `CC1(C)C(=O)N(c2ccc(C#N)c(C3CC3)c2)C(=O)N1Cc1ccc(F)cc1Nc1ccc(C(=O)O)cc1` [Example 159, 4-{2-[3-(4-cyano-3-cyclopropylphenyl)-5,5-dimethyl-2,4-dioxoimidazolidin-1-ylmethyl]-5-fluorophenylamino}benzoic acid] it is 2 nM.

Consider `CC1(C)C(=O)N(c2ccc(C#N)c(C(F)(F)F)c2)C(=O)N1Cc1cc(Cl)cc(Cl)c1Nc1ccc(Cl)cc1` [Example 40, 4-{3-[3,5-dichloro-6-(4-chlorophenylamino)benzyl]-4,4-dimethyl-2,5-dioxoimidazolidin-1-yl}-2-trifluoromethylbenzonitrile], for which the IC50 came out at 30 nM.

`CC1(C)C(=O)N(c2ccc(C#N)c(C(F)(F)F)c2)C(=O)N1Cc1cc(Cl)ccc1Nc1ccc(F)cc1` [Example 41, 4-{3-[5-Chloro-2-(4-fluorophenylamino)benzyl]-4,4-dimethyl-2,5-dioxoimidazolidin-1-yl}-2-trifluoromethylbenzonitrile]: the IC50 is 28 nM.

`CC(C)(C)OC(=O)c1ccc(Nc2cc(F)ccc2CN2C(=O)N(c3ccc(C#N)c(C(F)(F)F)c3)C(=O)C2(C)C)cc1` [Example 125, tert-butyl 4-{2-[3-(4-cyano-3-trifluoromethylphenyl)-5,5-dimethyl-2,4-dioxoimidazolidin-1-ylmethyl]-5-fluorophenylamino}benzoate]: the IC50 was 110 nM. Regarding `CC1(C)C(=O)N(c2ccc(C#N)c(C(F)(F)F)c2)C(=O)N1Cc1ccccc1Nc1ccccc1F` [Example 44, 4-{3-[2-(2-fluorophenylamino)benzyl]-4,4-dimethyl-2,5-dioxoimidazolidin-1-yl}-2-trifluoromethylbenzonitrile], the IC50 was 7 nM.

As for `CC(C(=O)O)(C(=O)O)c1ccc(Nc2ccccc2CN2C(=O)N(c3ccc(C#N)c(C(F)(F)F)c3)C(=O)C2(C)C)cc1` [Example 233, 2-(4-{2-[3-(4-Cyano-3-trifluoromethylphenyl)-5,5-dimethyl-2,4-dioxoimidazolidin-1-ylmethyl]phenylamino}phenyl)-2-methylmalonic acid], the IC50 turned out to be 22 nM.

With `Cc1cnccc1Nc1ccccc1CN1C(=O)N(c2ccc(C#N)c(C(F)(F)F)c2)C(=O)C1(C)C` [Example 181, 4-{4,4-dimethyl-3-[2-(3-methylpyridin-4-ylamino)benzyl]-2,5-dioxoimidazolidin-1-yl}-2-trifluoromethylbenzonitrile], the IC50 turned out to be 8 nM. As to `Cc1cc(N2C(=O)N(Cc3ccc(F)cc3Nc3ccc(C(N)=O)cc3)C(C)(C)C2=O)ccc1C#N` [Example 190, 4-{2-[3-(4-Cyano-3-methylphenyl)-5,5-dimethyl-2,4-dioxoimidazolidin-1-ylmethyl]-5-fluorophenylamino}benzamide], the IC50 stood at 76 nM. Take `CC1(C)C(=O)N(c2ccc(C#N)c(C(F)(F)F)c2)C(=O)N1Cc1ccccc1Nc1ccc2cc(C(=O)O)ccc2c1` [Example 209, 6-{2-[3-(4-cyano-3-trifluoromethylphenyl)-5,5-dimethyl-2,4-dioxoimidazolidin-1-ylmethyl]phenylamino}naphthalene-2-carboxylic acid]: the IC50 is 62 nM. With `CC1(C)C(=O)N(c2ccnc(C(F)(F)F)c2)C(=O)N1Cc1ccccc1Nc1ccccc1` [Example 65, 5,5-Dimethyl-1-(2-phenylaminobenzyl)-3-(2-trifluoromethylpyridin-4-yl)imidazolidine-2,4-dione], the IC50 was 145 nM. Regarding `CC1(C)C(=O)N(c2ccc(C#N)c(C(F)(F)F)c2)C(=O)N1Cc1ccc(Cl)cc1Nc1ccc(C(=O)O)cc1` [Example 131, 4-{5-chloro-2-[3-(4-cyano-3-trifluoromethylphenyl)-5,5-dimethyl-2,4-dioxoimidazolidin-1-ylmethyl]phenylamino}benzoic acid], the IC50 stood at 15 nM. As for `CC1(C)C(=O)N(c2ccc(F)c(C(F)(F)F)c2)C(=O)N1Cc1ccc(F)cc1Nc1ccc2c(c1)C(=O)CCO2` [Example 239, 1-[4-fluoro-2-(4-oxochroman-6-ylamino)benzyl]-3-(4-fluoro-3-trifluoromethylphenyl)-5,5-dimethylimidazolidine-2,4-dione], the IC50 came to 103 nM. The result for `CC(C)(C)c1cc(N2C(=O)N(Cc3ccc(F)cc3Nc3ccc(F)cc3F)C(C)(C)C2=O)ccc1C#N` [Example 221, 2-tert-butyl-4-{3-[2-(2,4-difluorophenylamino)-4-fluorobenzyl]-4,4-dimethyl-2,5-dioxoimidazolidin-1-yl}benzonitrile] reads 10 nM; that for `CC1(C)C(=O)N(c2ccc(C#N)c(C(F)(F)F)c2)C(=O)N1Cc1ccc(C(F)(F)F)cc1Nc1ccc(C(=O)O)cc1` [Example 107, 4-{2-[3-(4-cyano-3-trifluoromethylphenyl)-5,5-dimethyl-2,4-dioxoimidazolidin-1-ylmethyl]-5-trifluoromethylphenylamino}benzoic acid], 112 nM; that for `CC1(C)C(=O)N(c2ccc(C#N)c(C(F)(F)F)c2)C(=O)N1Cc1ccccc1Nc1ccc2c(c1)C(=O)OC2` [Example 200, 4-{4,4-dimethyl-2,5-dioxo-3-[2-(3-oxo-1,3-dihydroisobenzofuran-5-ylamino)benzyl]imidazolidin-1-yl}-2-trifluoromethylbenzonitrile], 8 nM.

These data come from patent US7759366B2 (Sanofi-Aventis, priority 2006, dated 2010).
